According to patent US20070026505A1, “Amino acid and metabolite biosynthesis” (priority 2005, published 2007):

Assays:
[1] = molecular target: T1, C. glutamicum MetA (Corynebacterium glutamicum, UniProt O68640); assay: MetA (in vitro O-acetyltransferase) activity in crude protein extracts, C. glutamicum MetA; type: biochemical
T1 construct: contain both endogenous and episomal C. glutamicum MetA and MetY genes; expressed in transfected cells; host or cells: C. glutamicum MA-442 (plasmid MB-4135, metA-metY) and MA-449 (MB-4138, metY-metA), both MA-428 / ATCC 13032 derivatives; crude protein extract
T1 sequence (O68640 whole entry): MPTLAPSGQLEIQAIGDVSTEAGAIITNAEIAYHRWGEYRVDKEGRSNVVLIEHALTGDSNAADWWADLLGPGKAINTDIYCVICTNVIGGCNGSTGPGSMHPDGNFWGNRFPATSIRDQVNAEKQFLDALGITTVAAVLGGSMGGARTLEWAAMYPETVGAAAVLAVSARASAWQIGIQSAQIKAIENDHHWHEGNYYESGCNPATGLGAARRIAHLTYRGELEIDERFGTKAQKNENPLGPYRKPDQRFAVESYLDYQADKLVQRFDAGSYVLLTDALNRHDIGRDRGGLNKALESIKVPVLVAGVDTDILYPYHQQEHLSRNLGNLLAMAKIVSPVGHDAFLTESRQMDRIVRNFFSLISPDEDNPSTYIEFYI
Protocol: MetA activity in C. glutamicum expressing endogenous and episomal metA genes was determined. MetA activity was assayed in crude protein extracts using a protocol described by Kredich and Tomkins (J. Biol. Chem.241(21): 4955-4965, 1966). […] Briefly, 1 μg of protein extract was added to a microtiter plate. Reaction mix (250 μl; 100 mM tris-HCl pH 7.5, 2 mM 5,5′-Dithiobis(2-nitrobenzoic acid) (DTN), 2 mM sodium EDTA, 2 mM acetyl CoA, 2 mM homoserine) was added to each well of the microtiter plate. In the course of the reactions, MetA activity liberates CoA from acetyl-CoA. A disulfide interchange occurs between the CoA and DTN to produce thionitrobenzoic acid. The production of thionitrobenzoic acid is followed spectrophotometrically. Absorbance at 412 nm was measured every 5 minutes over a period of 30 minutes. A well without protein extract was included as a control. […] Inhibitors were added directly to the reaction mix before it was added to the protein extract.
Experiments were performed in the presence and absence of IPTG that induces expression of the plasmid borne MetA and MetY genes.

[2] = system: O-Acetylhomoserine sulfhydrylase (MetY); conditions: grown in the presence of 0.5 mM methionine; cited from earlier work

| Compound | MetA activity of MA-442 extracts in presence of S-AM ([1]; 0.2 mM S-AM) | MetA activity of MA-442 extracts in presence of methionine ([1]; 5 mM methionine) | reduction in MetY enzyme activity [2] |
| --- | --- | --- | --- |
| C[S+](CC[C@H](N)C(=O)[O-])C[C@H]1O[C@@H](n2cnc3c(N)ncnc32)[C@H](O)[C@@H]1O (stereo partly drawn) [S-AM, S-adenosyl methionine] | reduced | – | – |
| CSCC[C@H](N)C(=O)O [methionine] | – | reduced | 99% |
